# Assay results taken from patent publication US11266710B2, “Angio-3 for treatment of retinal angiogenic diseases” (SINGAPORE HEALTH SERVICES PTE LTD, priority 2017, dated 2022).
# Where no end group is shown, it is not given here.
# Columns and labels:
# [1] = system: retinal function (a- and b-wave) in B6J WT mice; assay: Retinal function test (ERG) in laser-induced CNV mice; assay type: in vivo, mouse; conditions: laser-induced CNV mice with and without Angio-3 treatment
# Procedure: (§1) FIG. 3A is a schematic of the experimental design on the efficacy of Angio-3 in a laser-induced choroidal neovascularization (CNV) model in mice (B6J WT mice). FIG. 3B are FFA images of baseline and at different time points post treatment. IV single injection of 100 μL of Angio-3 (25 mg/Kg Bwt) was given at Day 0 (prevention mode) and 4 days after laser (regression mode) and followed for 10 weeks. FIG. 3C is a graph showing the area of leakage by each eye for various groups. FIG. 3D are graphs of the mean area of leakage of all batches for each group. […] The attenuation retinal vascularization was better than scrambled peptide. n=6 eyes per batch; n=3 batches. Values are expressed as means±s.e.m., **P<0.01, *P<0.05, student's t-test. FIG. 3E is a graph of the result of the Retinal Function Test that measures ERG changes in Angio-3 treated and control.
# Animals were dark-adapted overnight (12 h), and the preparations for recordings were carried out under dim red light. Anesthesia and pupil dilation were induced as described. Animals were lightly secured to a stage with fastener strips across the upper and lower back to ensure a stable, reproducible position for ERG recordings. […] ERGs were recorded (Espion; Diagnosis LLC, Redwood City, Calif.) with corneal monopolar electrodes (Mayo, Aichi, Japan). […]
# [2] = system: laser-induced CNV in C57/BL6J (B6J) wild type mice; assay: Laser-induced choroidal neovascularization (CNV) model in mice, area of leakage by FFA; assay type: in vivo; conditions: mice; IV route
# Procedure: as §1
# FIG. 4A is a schematic of the experimental design on the efficacy of Angio-3 by IVT administration. […]
# FIG. 11 A are FFA images of baseline and at different time points post treatment. Mice received single IVT injection of Angio-3 (at a dose of 1 μg in 1 μl or 100 ng in 1 μl), and chemically modified Angio-3 peptides Pep-N (at doses of 5 μg in μl; 1 μg in μl; and 100 ng in 1 μl, respectively) and Pep-Q peptides (at doses of 5 μg in μl; 1 μg in μl; and 100 ng in 1 μl, respectively). FIG. 11 B is a graph of the area of leakage by each eye. Single dose attenuates retinal angiogenesis in laser-induced mice CNV model via IVT route till 4 weeks. […] Eylea is the positive control. n=18 eyes per group; Values are expressed as means±s.e.m. n=3 independent experiment, **P<0.01, *P<0.05, student's t-test.
# Laser induced choridal neo-vascularization (CNV) in C57/BL6J (B6J) wild type mice (n=90).
# In B6J mice, single injection of 100 μl volume at 25 mg/kg Bwt concentration Angio-3 was injected via intravenous (i/v) route and this was tested in both Preventive mode (before laser) and Regression mode (4 days after laser). […]
# Angio-3 was also injected via intravitreal (IVT) route, single injection of 1 μl volume at 2 different doses; 1 μg (High dose) and 100 ng (Low dose).
# 4 laser photocoagulation sites were placed concentrically around the optic disc of both eyes to induce CNVs. A diode laser (810 nm) was used with a relative potency scale of 120 mW for mice and 250 mW for rats, an exposure time of 0.05 s, and a spot size of […]. Laser spots were focused with crystal covers to avoid laser beam dispersion. Bubble formation was confirmed the rupture of Bruch's membrane.
# Fundus photography and fundus fluorescein angiography (FFA) was imaged using a MICRON IV fundus camera (Phoenix Laboratories USA). For FFA, animals were intraperitoneally injected with 10% sodium fluorescein at a dose of 0.01 ml per 5-6 gm body weight.
# In B6J mice, single intravitreous (IVT) injection of 100 ng, 1 μg, 5 μg PEP-Q, PEP-N (modified Angio-3), Angio-3 and Eylea were executed and this was tested in Prevention mode (before laser) Method of Llser induced CNV model and injection was described as above.
# [3] = system: KIBA mice that overexpress hVEGF; assay: Retinal function tests (ERG) in KIBA/KIMBA mice overexpressing hVEGF; assay type: in vivo, mouse; conditions: IVT treated; 2nd IVT at 12 weeks after 1st treatment
# Procedure: Eight-week-old KIBA mice that overexpress hVEGF were dark-adapted overnight (for at least 12 hours) and all the procedures were carried out under dim red light. Mice were anesthetized with a combination of ketamine (20 mg/kg body weight) and xylazine (2 mg/kg body weight). Pupils were dilated with a topical administration of 1% tropicamide (Alcon Laboratories, Inc., Fort Worth, Tex., USA) and 2.5% phenylephrine (Bausch and Lomb Pharmaceuticals, Inc., Tampa, Fla., USA) ophthalmic solutions.
# Animals were placed in ERG recording table with body temperature controller for ERG recordings. Electroretinograms were recorded (Espion; Diagnosys LLC, Lowell, Mass., USA) with corneal monopolar electrodes. A goldcup electrode was placed in the mouth to serve as the reference electrode, and a silver-silver chloride electrode (Grass-Telefactor, West Warwick, R.I., USA) was placed in the tail to serve as the ground electrode. Recordings were performed at a wide range of stimulus intensity (−3.0 to 1.0 log cd·s/m2) in dark-adapted (scotopic) condition. The response a teach flash intensity was an average of at least five trials. […]
# ERG was recorded from 8 weeks old to 24 weeks old of mice in untreated group (naïve group). In Angio-3 IVT treated group, ERG was recorded at 8 weeks old as baseline (BL) and then 6 and 12 weeks post treatment. […]
# [4] = system: corneal epithelial wound in wild-type mice; assay: Corneal wound healing in a mouse model; assay type: in vivo; conditions: day 0 to Day 5; treated vs control wild-type mice
# Description: FIGS. 28A and 28B are images and a graph showing results of testing wound healing in a mouse model. FIG. 28A are representative slitlamp biomicroscopy images of murine cornea following the removal of corneal epithelium from Angio-3 treated and control wild-type mice and topical fluorescein staining of the epithelial defect (green). FIG. 28B is a graph of the percentage of wound defect remaining (vertical axis) over time (horizontal axis) in Angio-3 treated and control wild-type mice, n=6 for each group from 2 independent experiments. Both groups are statistically significant. Angio-3 didn't affect the normal wound healing process. Data is represented as mean±S.D.
# Two (2)-mm trephine was used to mark the wound size. Epithelium, basement membrane and some stromal layers were removed by peeling using forceps. Fluorescein staining to the wounded area of cornea was done from day 0 to Day 5 (n=6 mice per group from 2 independent experiments). Gentle and meticulous approach when wounding and handling mouse cornea, fluorescein was diluted, slit lamp images had to be taken within a few seconds after staining. The wound area was quantified by ImageJ software. Student's t-test was used to compare data between two groups; P<0.05 was considered to be significant.
sequence,measurement,setting,value
"TPHTHNRTPE [Angio-3, Thr Pro His Thr His Asn Arg Thr Pro Glu]",retinal function (ERG a- and b-wave amplitude),[1],no significant difference in retinal function
same,"natural wound healing process, menstrual cycle and behavioural change (safety of systemic route)",[2],"did not affect the natural wound healing process, menstrual cycle and behavioural change"
same,ERG a and b-wave responses (retinal function),[3],increased the a and b-wave responses for 6 weeks post treatment and then again increased the response for 20 weeks with second dose
same,normal corneal wound healing process (percentage of wound defect remaining),[4],didn't adversely affect the normal wound healing process
